Measured values from patent EP0211584A1, “Antihypertensive agents” (AMERICAN HOME PRODUCTS CORPORATION, priority 1985, dated 1987).
Where two headings read alike, the source gives them in different places.

Columns and labels:
[1] = tested on: isolated paced intact rabbit atria; experiment: Cardiac depressant (negative inotropic) effect in isolated paced rabbit atria; details: Oryctolagus cuniculus; for IC25: read-out: IC25 (concentration which produces 25% inhibition of isometric force)
Protocol: The potential for detrimental cardiac depressant (negative inotropic) effects of the compounds of this invention was assessed in isolated paced intact rabbit atria. […] Muscles (N=5-9/compound) were stimulated at a frequency of 3Hz with a WPI stimulator for a 60 minute equilibration period. Changes in isometric force were recorded as described for the aortic smooth muscle experiments, supra. […]

[2] = tested on: rabbit aortic smooth muscle; experiment: Ca+2 antagonism: relaxation of KCl-depolarized rabbit aortic smooth muscle strips; details: 20 min; for inhibition at 10 µM: Oryctolagus cuniculus, read-out: P.R. (percent relaxation of aortic tissue)
Protocol: The composition of PSS was as follows (mM): NaCl 112,KCI 5, NaHCO3 25 KH2PO4 1, MgSO4 1.2, CaCl2 2.5, dextrose 10. The lower end of each tissue strip was attached to a fixed post and the upper end to a Statham UC-4 transducer. Changes in force development were recorded on a Beckman Dynograph Polygraphic Recorder.
Following equilibration, the muscles were contracted in a depolarizing solution of PSS in which 100mM KCI was substituted for an equimolar concentration of NaCI. Following attainment of steady- state isometric force (20 min.), the test compound was added to afford a final concentration of 1 x 10^-5M. The inhibitory effect, expressed as percent relaxation, was determined from the mean of two experiments twenty minutes after the addition of the compound being tested.
(§1) The following examples illustrate the preparation of a representative number of compounds of this invention. After each example, the Ca+2 antagonist activity of the compound is presented in terms of percent relaxation of aortic tissue (P.R.) at 10-^5M concentration. […] Inhibition of super- precipitation (Antag. of Actin-Myosin interaction) is expressed as percent inhibition (mean ± standard error of the mean for at least 3 separate experiments) at a compound concentration. In the same manner, inhibition of myosin light chain phosphorylation (Antag. of MLCP) is expressed as a percent inhibition at a compound concentration. Similarly, the antihypertensive activity is reported in terms of millimetres mercury (mmHg) systolic blood pressure (B.P.) reduction at the stated time post 50 mg/kg oral dosing or other dosing as indicated.

[3] = biological target: Ca^+2-calmodulin dependent myosin light chain phosphorylation (Bos taurus, UniProt Q28824); experiment: Inhibition of myosin light chain phosphorylation (MLCP), Silver et al.; format: biochemical; details: read-out: Antag. of MLCP (percent inhibition of myosin light chain phosphorylation)
Protocol: The data reported herein was obtained at a six minute time-point rather than the 1.5, 5 and 12 minute time points indicated in the superprecipita- tion assay of the Silver et al paper.
as §1

[4] = tested on: arterial actin-myosin interactions; experiment: Inhibition of superprecipitation (antagonism of actin-myosin interaction), Silver et al.; format: biochemical; details: six minute time-point
Protocol: . The data reported herein was obtained at a six minute time-point rather than the 1.5, 5 and 12 minute time points indicated in the superprecipita- tion assay of the Silver et al paper.
as §1

[5] = tested on: spontaneously hypertensive rats; experiment: Hypotensive effect: systolic blood pressure of spontaneously hypertensive rats; format: in vivo; details: mmHg per method
Protocol: The hypotensive in vivo effect of the compounds of this invention was determined by measuring changes in the systolic blood pressure of spontaneously hypertensive rats with a Decker Caudal Plethysmograph. The compound being tested was administered to a group of 4 rats and their systolic pressure was determined prior to and at 1.5 and 4 hours after compound administration. Initial testing was done by oral administration of the compound. Results (mmHg) are expressed as decreases in systolic blood pressure.
as §1

[6] = rabbit atria paced at 3Hz, 30°C, cumulative dosing
[7] = compound 1 x 10^-5M, 100mM KCl contraction, 20 minutes after addition, mean of two experiments
[8] = dose 50mg/kg oral, at 1.5 hours, 50 mg/kg
[9] = dose 50mg/kg oral, at 4 hours, 50 mg/kg
[10] = dose 50mg/kg oral, at 1.5 hours
[11] = dose 25mg/kg oral, at 1.5 hours

CC1=C(C(=O)OCCOc2ccccc2)C(c2c(F)c(F)c(F)c(F)c2F)C2=C(CNCC2=O)N1 (single isomer, unassigned) [Example 4, (+ )-1,4,5,6,7,8-Hexahydro-2-methyl-5-oxo-4-(pentafluorophenyl)-1,7-naphthyridine-3-carboxylic acid 2-phenoxyethyl ester]
IC25 [1, 6]: 800 nM
inhibition at 10 µM [2, 7]: 61%
inhibition at 50 µM [3]: 37%
inhibition at 100 µM [3]: 67%
Antag. of Actin-Myosin (percent inhibition of superprecipitation) ([4]; 50µM): 38%
Antag. of Actin-Myosin (percent inhibition of superprecipitation) ([4]; 100µM): 71%

CO[C@H](COC(=O)C1=C(C)NC2=C(C(=O)CNC2)C1c1c(F)c(F)c(F)c(F)c1F)c1ccccc1 (single isomer, unassigned) [Example 8 Diastereomer A, 1,4,5,6,7,8-Hexahydro-2-methyl-5-oxo-4-(R or S-pentafluorophenyl)-1,7-naphthyridine-3-carboxylic acid(S)-2-methoxy-2-phenylethyl esters]
B.P. (systolic blood pressure reduction) [5, 8]: -73 mm
B.P. (systolic blood pressure reduction) [5, 9]: -86 mm
inhibition at 10 µM ([2]; 10^-5M, Note: Muscles were pre-treated): 50%
inhibition at 50 µM [3]: 28%
inhibition at 100 µM [3]: 63%
Antag. of Actin-Myosin (percent inhibition of superprecipitation) ([4]; 50µM): 28%
Antag. of Actin-Myosin (percent inhibition of superprecipitation) ([4]; 100µM): 69%

CO[C@H](COC(=O)C1=C(C)NC2=C(C(=O)CNC2)C1c1c(F)c(F)c(F)c(F)c1F)c1ccccc1 (single isomer, unassigned) [Example 8 Diastereomer B, 1,4,5,6,7,8-Hexahydro-2-methyl-5-oxo-4-(R or S-pentafluorophenyl)-1,7-naphthyridine-3-carboxylic acid(S)-2-methoxy-2-phenylethyl esters]
B.P. (systolic blood pressure reduction) [5, 8]: -28 mm
B.P. (systolic blood pressure reduction) [5, 9]: -67 mm
P.R. (percent relaxation of aortic tissue) ([2]; 10^-5M, Note: Muscles were pre-treated, 10 µM): 53%
Antag. of Actin-Myosin (percent inhibition of superprecipitation) ([4]; 50µM): 30%
Antag. of Actin-Myosin (percent inhibition of superprecipitation) ([4]; 100µM): 64%

COC(COC(=O)C1=C(C)NC2=C(C(=O)CNC2)C1c1c(F)c(F)c(F)c(F)c1F)c1ccccc1 (stereo not shown) [Example 5, 1,4,5,6,7,8-Hexahydro-2-methyl-5-oxo-4-(pentafluorophenyl)-1,7-naphthyridine-3-carboxylic acid 2-methoxy-2-phenylethyl ester]
IC25 [1, 6]: 10000 nM
inhibition at 10 µM [2, 7]: 71%
inhibition at 25 µM [3]: 21 ± 3%
inhibition at 50 µM [3]: 48 ± 2%
inhibition at 100 µM [3]: 70 ± 3%
Antag. of Actin-Myosin (percent inhibition of superprecipitation) ([4]; 25µM): 20±5%
Antag. of Actin-Myosin (percent inhibition of superprecipitation) ([4]; 50µM): 50±5%
Antag. of Actin-Myosin (percent inhibition of superprecipitation) ([4]; 100µM): 75±4%

COC(COC(=O)C1=C(C)NC2=C(C(=O)CNC2)C1c1c(F)cccc1Cl)c1ccccc1 (stereo not shown) [Example 9, 4-(2-Chloro-6-fluoroohenyl)-1,4,5,6,7,8-hexahydro-2-methyl-5-oxo-1,7-naphthyridine-3-carboxylic acid 2-methoxy-2-phenylethyl ester]
B.P. (systolic blood pressure reduction) [5, 10]: -37 mm
B.P. (systolic blood pressure reduction) ([5]; dose 50mg/kg oral, at 4 hours): -14 mm
inhibition at 10 µM [2, 7]: 28%
inhibition at 100 µM [3]: 44%
Antag. of Actin-Myosin (percent inhibition of superprecipitation) ([4]; 100µM): 40%

COC(COC(=O)C1=C(C)NC2=C(C(=O)CNC2)C1c1cccc(Cl)c1)c1ccccc1 (stereo not shown) [Example 11, 4-(3-Chloroahenyl)-1,4,5,6,7,8-hexahydro-2-methyl-5-oxo-1,7--naphthyridine-3-carboxylic acid. 2-methoxv-2-phenvlethvl ester]
B.P. (systolic blood pressure reduction) [5, 10]: -29 mm
inhibition at 10 µM [2, 7]: 31%
inhibition at 100 µM [3]: 48%
Antag. of Actin-Myosin (percent inhibition of superprecipitation) ([4]; 100µM): 53%

CC1=C(C(=O)OCCOc2ccccc2)C(c2c(F)ccc(F)c2F)C2=C(CNCC2=O)N1 (stereo not shown) [Example 16, 1,4,5,6,7,8-Hexahydro-2-methyl-5-oxo-4-(2,3,6-trifluorophenyl)-1,7-naphthyridine-3-carboxylic acid 2-phenoxyethyl ester]
B.P. (systolic blood pressure reduction) [5, 11]: -37 mm
inhibition at 10 µM [2, 7]: 63%
inhibition at 100 µM [3]: 28%
Antag. of Actin-Myosin (percent inhibition of superprecipitation) ([4]; 100µM): 34%

CC1=C(C(=O)OCC(C)(C)Oc2ccccc2)C(c2c(F)c(F)c(F)c(F)c2F)C2=C(CNCC2=O)N1 (stereo not shown) [Example 20, 1,4,5,6,7,8-Hexahydro-2-methyl-5-oxo-4-(pentafluorophenyl)-1,7-naphthyridine-3-carboxylic acid 2-methyl-2-phenoxypropyl ester]
B.P. (systolic blood pressure reduction) [5, 11]: -64 mm
inhibition at 10 µM [2, 7]: 51%
inhibition at 100 µM [3]: 62%
Antag. of Actin-Myosin (percent inhibition of superprecipitation) ([4]; 100µM): 67%

CC1=C(C(=O)OCCOc2cccc(Cl)c2Cl)C(c2c(F)c(F)c(F)c(F)c2F)C2=C(CNCC2=O)N1 (stereo not shown) [Example 22, 1,4,5,6,7,8-Hexahydro-2-methyl-5-oxo-4-(pentafluorophenyl)-1,7-naphthyridine-3-carboxylic acid 2-(2,3-dichlorphenoxy)ethyl ester]
B.P. (systolic blood pressure reduction) [5, 11]: -37 mm
B.P. (systolic blood pressure reduction) ([5]; dose 25mg/kg oral, at 4 hours): -52 mm
inhibition at 10 µM [2, 7]: 61%
inhibition at 10 µM ([3]; 10µM): 25%
inhibition at 25 µM [3]: 54 ± 2.5%
inhibition at 50 µM [3]: 73 ± 1.5%
inhibition at 100 µM [3]: 74 ± 2%
Antag. of Actin-Myosin (percent inhibition of superprecipitation) ([4]; 10µM): 30±3%
Antag. of Actin-Myosin (percent inhibition of superprecipitation) ([4]; 25µM): 54±3%
Antag. of Actin-Myosin (percent inhibition of superprecipitation) ([4]; 50µM): 75±4%
Antag. of Actin-Myosin (percent inhibition of superprecipitation) ([4]; 100µM): 78±1%

CC1=C(C(=O)OCCOc2ccccc2)C(c2c(F)ccc(C)c2Cl)C2=C(CNCC2=O)N1 (stereo not shown) [Example 23, 4-(2-chloro-6-fluoro-3-methylphenyl)-1,4,5,6,7,8-hexahydro-2-methyl-5-oxo-1,7-naphthyridine-3-carboxylic acid 2-phenoxyethyl ester]
B.P. (systolic blood pressure reduction) [5, 11]: -22 mm
B.P. (systolic blood pressure reduction) ([5]; dose 25mg/kg oral, at 4 hours): -31 mm
inhibition at 10 µM [2, 7]: 67%
inhibition at 50 µM [3]: 18%
inhibition at 100 µM [3]: 56%
Antag. of Actin-Myosin (percent inhibition of superprecipitation) ([4]; 50µM): 23%
Antag. of Actin-Myosin (percent inhibition of superprecipitation) ([4]; 100µM): 62%

CC1=C(C(=O)OCCOc2ccccc2)C(c2c(F)ccc(Cl)c2Cl)C2=C(CNCC2=O)N1 (stereo not shown) [Example 24, 4-(2,3-Dichloro-6-fluorophenyl)-1,4,5,6,7,8-hexahydro-2-methyl-5-oxo-1,7-naphthyridine-3-carboxylic acid 2-phenoxyethyl ester]
IC25 [1, 6]: 10000 nM
inhibition at 10 µM [2, 7]: 65%
inhibition at 25 µM [3]: 8 ± 2%
inhibition at 50 µM [3]: 50 ± 2%
inhibition at 100 µM [3]: 68 ± 1%
Antag. of Actin-Myosin (percent inhibition of superprecipitation) ([4]; 25µM): 9±2%
Antag. of Actin-Myosin (percent inhibition of superprecipitation) ([4]; 50µM): 54±3%
Antag. of Actin-Myosin (percent inhibition of superprecipitation) ([4]; 100µM): 72±1%

NCCCCCCNS(=O)(=O)c1cccc2c(Cl)cccc12 [Example W-7, reference compound]
inhibition at 10 µM ([1]; read-out: inhibition of isometric force): < 20%

COc1ccc(CCN(C)CCCC(C#N)(c2ccc(OC)c(OC)c2)C(C)C)cc1OC (stereo not shown) [Verapamil, reference compound]
IC25 [1]: 60 nM

COC(=O)C1=C(C)NC(C)=C(C(=O)OC)C1c1ccccc1[N+](=O)[O-] [nifedipine, reference compound]
IC25 [1]: 50 nM

CCOC(=O)C1=C(C)NC(C)=C(C(=O)OC)C1c1cccc([N+](=O)[O-])c1 (stereo not shown) [nitrendipine, reference compound]
IC25 [1, 6]: 350 nM
